According to patent US4216127A, “Enkephalin analogues” (American Home Products Corporation, priority 1979, dated 1980):
Square brackets hold non-standard residues; d marks the D form. Ends that are not written are not given here.

Key:
[1] = system: CF-1 mice; experiment: phenylbenzoquinone induced writhing test (modified Siegmund procedure); type: in vivo
Description: Biol. Med. 95 729-731 (1957), in which groups of ten CF-1 mice were administered, subcutaneously, known dosages of N(Me)Tyr--D--Asn--Gly--N(Me)Phe--D--Asn--NH2, as a compound representative of the group of compounds of this invention. Five minutes later, each animal received, i.p., 0.25 ml. of a 0.02 percent phenylbenzoquinone solution. The animals were observed over a ten minute period following the phenylbenzoquinone injection for the presence of writhing. […] The dose-response analysis was then performed according to Litchfiled et al., J. Pharmacol. exp. Therap. 96 99--113(1949). The ED50 for the test compound was 1.0 mg/kg (0.62-1.6) at 30 minutes by subcutaneous administration.

[2] = intracerebral (icv) administration; cited from earlier work
[3] = intravenous administration; more potent than morphine; cited from earlier work

CC(=O)O.CN[C@@H](Cc1ccc(O)cc1)C(=O)N[C@H](CC(N)=O)C(=O)NCC(=O)N(C)[C@@H](Cc1ccccc1)C(=O)N[C@H](CC(N)=O)C(N)=O [N-Methyl-L-tyrosyl-D-asparaginyl-glycyl-N-methyl-L-phenylalanyl-D-asparaginyl amide acetate]
animals in which analgesia was observed ([1]; dose of 10 mg/kg, same procedure, for a period of forty five minutes): 100%
ED50 (analgesia, absence of writhing) ([1]; subcutaneous administration, at 30 minutes, limits (0.62-1.6), groups of ten CF-1 mice): 1.0 mg/kg

II: pentapeptide Tyr--Gly--Gly--Phe--X where X=Met, isolated by Hughes et al. (YGGFM; printed: Tyr--Gly--Gly--Phe--Met)
analgesic activity after icv administration [2]: analgesic activity only after intracerebral (icv) administration

Tyr--D--Ala--Gly--Phe--Met--NH2 [III]
analgesic activity after icv administration [2]: potent and prolonged analgesia

Y[dM]GFP-NH2 [IV]
potency relative to morphine [3]: 5.5 times
